Results: patent US5030638A, “Method of antiviral enhancement” (priority 1990, dated 1991)
Converted amounts (≈) assume the structure as drawn. Read-outs that look alike come from different tables or passages of the source.

Key:
[1] = tested on: HIV; conditions: cited from earlier work; for HIV inhibitory / antiviral activity: literature
[2] = tested on: glucosidase; conditions: Fleet et al.; cited from earlier work
[3] = tested on: α-glycosidase; conditions: literature; cited from earlier work
[4] = target: T1, yeast α-glucosidase (Saccharomyces cerevisiae, UniProt P53341); assay: Alpha-glucosidase inhibition assay, pH 7.4; format: biochemical
T1 construct: purchased Sigma
Method: (§1) Yeast alpha-glucosidase and almond beta-glucosidase activities were measured by a modification of the method of Evans, et al., Phytochemistry 22, 768-770 (1983). The modifications included 1) assay of activities at pH 7.4 in HEPES (N-2-hydroxyethylpiperazine-N'-2-ethanesulfonic acid) buffer, 2) measurement in 96 well microtiter plates and 3) inclusion of 10% DMSO in control and test samples.
(§2) The release of p-nitrophenol from the substrate p-nitrophenylglycoside was measured spectrophotometrically in the presence and absence of test compound. Each assay included a known inhibitor of the enzyme as a standard.
To 100 μl 50 mM HEPES buffer, pH 7.4, in a microtiter plate, add 20 μl test compound in DMSO (DMSO alone in control), 40 μl (0.013 units) yeast alpha-glucosidase (Sigma) in HEPES buffer and pre-incubate at room temperature for 15 minutes. Add 40 μl 1.25 mM p-nitrophenyl-alpha-D-glucopyranoside (Sigma) in HEPES buffer, as substrate, and monitor absorbance change at 405 nm in Biotek EIA Auto-reader. Absorption change was measured at 15 to 25 minutes (reaction was linear for at least 30 minutes). Each sample was tested in triplicate. […] Deoxynojirimycin was used as standard inhibitor.

[5] = target: glucosidase I; conditions: Schweden et al.; compared to N-methyl- and N-butyl-derivatives; cited from earlier work
[6] = tested on: Sheep choroid plexus (SCP) cells; assay: Toxicity in control wells (without virus) of the plaque reduction assay; format: cell-based; parameters: key: 0: no toxicity; 4: total cell lysates; conditions: graded 0 to 4
Method: (§3) Sheep choroid plexus(SCP) cells were obtained from American Type Culture Collection (ATCC) catalogue number CRL 1700 and were routinely passaged in vitro in Dulbecco's Modified Eagles (DME) medium supplemented with 20% fetal bovine serum (FBS). SCP cells were passaged once per week at a 1:2 or 1:3 split ratio. Visna was titrated by plaque assay in six-well plates. Virus pools were stored at -70° C.
(§4) SCP cells were cultured in 6-well plates to confluence. Wells were washed two times with serum free Minimal Essential Medium (MEM) to remove FBS. 0.2 ml of virus was added per well in MEM supplemented with 4 mM glutamine and gentamycin. After 1 hour adsorption, the virus was aspirated from each well. The appropriate concentration of each compound in 5 ml of Medium 199 (M-199) supplemented with 2% lamb serum, 4 mM glutamine, 0.5% agarose and gentamycin was added to each well. […] To terminate the test: cultures were fixed in 10% formalin, the agar removed, the monolayers stained with 1% crystal violet and plaques counted. Each compound concentration was run in triplicate. […] 0 is no toxicity observed while 4 is total lysing of the cell monolayer.
Toxicity graded on 0 to 4 scale 0 = no toxicity, 4 = total cell lysates

[7] = target: almond β-glucosidase; assay: Beta-glucosidase inhibition assay, pH 4.8; format: biochemical; conditions: read-out: Enzyme Inhibition-IC50, Almond β-Glucosidase pH 4.8
Method: as §1, §2
To 100 μl 50 mM sodium citrate buffer, pH 4.8, in a microtiter plate, add 15 μl test compound in DMSO (DMSO alone in control), 20 μl (0.017 units) beta-glucosidase (Sigma) in citrate buffer and pre-incubate at room temperature for 15 minutes. Add 25 μl 2.50 mM p-nitrophenyl-beta-D-glucopyranside in citrate buffer, as substrate. […] Add 50 μl 0.4M NaOH. Read absorption change at 405 nm in a Biotek EIA Autoreader. Each sample was tested in triplicate. […] Castanospermine was used as standard inhibitor.

[8] = tested on: HIV-1, strain HTLV-IIIB; assay: Reduction of cytopathogenic effect (CPE) in HIV-1 infected CEM cells, MTT assay; format: cell-based; conditions: for inhibition at 1 µg/mL / inhibition at 3.2 µg/mL / inhibition at 10 µg/mL / inhibition at 32 µg/mL / inhibition at 500 µg/mL / inhibition at 100 µL/mL / IC50: Human immunodeficiency virus 1, IIIB, CCRF-CEM, 216 h; for inhibition at 1 µg/mL: 1.0 μg/ml; for inhibition at 1 µg/mL / inhibition at 3.2 µg/mL / inhibition at 10 µg/mL / inhibition at 32 µg/mL / inhibition at 500 µg/mL / inhibition at 100 µL/mL: read-out: Percent Reduction of CPE; for inhibition at 3.2 µg/mL: 3.2 μg/ml; for inhibition at 10 µg/mL: 10 μg/ml; for inhibition at 32 µg/mL: 32 μg/ml; for inhibition at 500 µg/mL: 500 μg/ml; for inhibition at 100 µL/mL: 100 μl/ml (so in the source); for IC50: read-out: ID50 (median inhibitory dose); for inhibition of HIV-1: in vitro
Method: These tests involved plating of susceptible human host cells which are syncytium-sensitive with and without virus in microculture plates, adding various concentrations of the test compound, incubating the plates for 9 days (during which time infected, non-drug treated control cells are largely or totally destroyed by the virus), and then determining the number of remaining viable cells using a colorimetric endpoint.
Tissue culture plates were incubated at 37° C. in a humidified, 5% CO2 atmosphere and observed microscopically for toxicity and/or cytopathogenic effect (CPE). At 2 and 6 days after infection, fresh dilutions of each test article were prepared from the frozen stock, and a 20 μl volume of each dilution (prepared as a 10× concentration was added to the appropriate wells of both infected and uninfected cells.
On the 9th day post-infection, the cells in each well were resuspended and a 100 μl sample of each cell suspension was removed for use in an MTT assay. A 20 μl volume of a 5 mg/ml solution of 3-(4,5-dimethylthiazol-2-yl)-2,5-diphenyltetrazolium bromide (MTT) was added to each 100 μl cell suspension, and the cells were incubated at 37° C. in 5% CO2 for 4 hours. […] A 100 μl volume of a solution of 10% sodium dodecyl sulfate in 0.01N hydrochloric acid wa added to each sample, and the samples were incubated overnight. The absorbance at 590 nm was determined for each sample using a Molecular Devices Vmax microplate reader. This assay detects drug-induced suppression of viral CPE, as well as drug cytotoxicity, by measuring the generation of MTT-formazan by surviving cells.
Assays were done in 96-well tissue culture plates. CEM cells were treated with polybrene at a concentration of 2 μg/ml, and an 80 μl volume of cells (1×10^4 cells) was dispensed into each well. A 100 μl volume of each test article dilution (prepared as a 2× concentration) was added to 5 wells of cells, and the cells were incubated at 37° C. for 1 hour. A frozen culture of HIV-1, strain HTLV-IIIB, was diluted in culture medium to a concentration of 5×10^4 TCID50 per ml, and a 20 μl volume (containing 10^3 TCID50 of virus) was added to 3 of the wells for each test article concentration. […] A 20 μl volume of normal culture medium was added to the remaining wells to allow evaluation of cytotoxicity. Each plate contained 6 wells of untreated, uninfected, cell control samples and 6 wells of untreated, infected, virus control samples. Dideoxycytidine (DDC) and dideoxyadenosine (DDA) were included as positive control compounds.

[9] = Solubility in aqueous solvent (antiviral test); format: physicochemical
[10] = tested on: visna virus; assay: Plaque reduction assay, inhibition of visna virus in vitro; format: cell-based; conditions: Visna-maedi virus, read-out: Antiviral Activity (plaque reduction)
Method: as §3, §4

[11] = target: almond β-glucosidase; assay: Beta-glucosidase inhibition assay, pH 7.4; format: biochemical; conditions: for IC50: pH 7.4, read-out: Enzyme Inhibition-IC50, Almond β-Glucosidase pH 7.4; for Inhibition Index (first, head is drawing 3) / Inhibition Index (second, head is drawing 4): ratio of IC50 values; for Inhibition Index (first, head is drawing 3): numerically almond pH 4.8 / almond pH 7.4; for Inhibition Index (second, head is drawing 4): numerically yeast α pH 7.4 / almond β pH 7.4
Method: as §1, §2
To 100 μl 50 mM HEPES buffer, pH 7.4, in a microtiter plate, add 20 μl test compound in DMSO (DMSO alone in control), 40 μl (0.136 units) beta-glucosidase (Sigma) in HEPES buffer and pre-incubate at room temperature for 15 minutes. Add 40 μl 1.25 mM p-nitrophenyl-beta-D-glucopyranoside in HEPES buffer, as substrate and monitor absorbance change at 405 nm in a Biotek EIA Autoreader. Absorption change was measured at 15 to 25 minutes (reaction is linear for at least 30 minutes). Each sample was tested in triplicate. […] Castanospermine was used as standard inhibitor.

[12] = tested on: trimming glucosidase II; conditions: Hettkamp et al.; cited from earlier work
[13] = tested on: trimming glucosidase I; conditions: Hettkamp et al.; cited from earlier work
[14] = in vivo; cited from earlier work
[15] = Assay for excretion of metabolites in urine of rats; format: in vivo, rat
[16] = Preliminary pharmacokinetic tests in rats, total radioactivity in the blood; conditions: rat
[17] = rat
[18] = HIV-1, CEM cells, reduction of CPE

T1 sequence (P53341 whole entry): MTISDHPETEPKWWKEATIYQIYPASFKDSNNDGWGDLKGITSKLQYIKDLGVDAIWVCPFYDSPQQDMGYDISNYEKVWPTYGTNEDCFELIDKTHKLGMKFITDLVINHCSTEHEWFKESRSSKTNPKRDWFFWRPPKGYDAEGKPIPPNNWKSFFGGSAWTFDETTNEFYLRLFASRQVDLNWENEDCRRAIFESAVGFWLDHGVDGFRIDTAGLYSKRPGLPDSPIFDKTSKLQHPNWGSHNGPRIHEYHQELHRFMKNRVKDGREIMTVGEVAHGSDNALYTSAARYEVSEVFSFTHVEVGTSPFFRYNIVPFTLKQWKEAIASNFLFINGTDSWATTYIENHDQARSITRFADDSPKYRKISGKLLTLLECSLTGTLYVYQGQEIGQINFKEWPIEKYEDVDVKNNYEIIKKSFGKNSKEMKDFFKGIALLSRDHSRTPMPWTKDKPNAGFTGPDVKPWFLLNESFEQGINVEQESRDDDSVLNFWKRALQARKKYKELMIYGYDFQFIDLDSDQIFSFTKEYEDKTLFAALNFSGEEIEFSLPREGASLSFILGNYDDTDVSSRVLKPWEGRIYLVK

In the case of `OC[C@H]1NC[C@@H](O)[C@@H]1O` (single isomer, unassigned) [D-enantiomer, 1,4-dideoxy-1,4-imino-arabinitol], the “HIV inhibitory / antiviral activity” value [1] is listed as “very little effect on HIV replication” and the glucosidase inhibition [2] is listed as “known glucosidase inhibitors”.

For `OC[C@H]1NCC[C@@H](O)[C@@H]1O` [fagomine], the “HIV inhibitory / antiviral activity” value [1] is given as “no HIV inhibition was observed” and the α-glycosidase inhibitory activity [3] is given as “known to have α-glycosidase inhibitory activity”.

For `CCCCCCN1C[C@H](O)[C@@H](O)[C@H](O)[C@H]1CO` [Example 2, 1,5-(Hexylimino)-1,5-dideoxy-D-glucitol], the IC50 ([4]; pH 7.4, read-out: Enzyme Inhibition-IC50, Yeast α-Glucosidase pH 7.4) is listed as 371 µM, the “Ki, glucosidase I” value [5] is listed as “greater Ki values than the N-methyl- and N-butyl-derivatives” and the Toxicity ([6]; 1 μM) is listed as 2. For the same compound, the Toxicity ([6]; 10 μM) was 0, the IC50 [7] was 144 µM and the “ID50 compared to N-butyl-DNJ” value ([8]; HIV-1, CEM cells) was “advantageous reduction in ID50”. It also gave an inhibition at 1 µg/mL [8] of 0%, an inhibition at 3.2 µg/mL [8] of 15.6% and an inhibition at 10 µg/mL [8] of 65.6%. The inhibition at 32 µg/mL [8] was 68%, the inhibition at 500 µg/mL [8] was 147% and the inhibition at 100 µL/mL [8] was 65.1%. For the same compound, the IC50 [8, 18] was 7.3 µg/mL (≈ 29.5 µM), the “inhibition of HIV-1” value [8] was “demonstrated to inhibit HIV-1” and the Solubility [9] was “Solubility problem; compound did not completely dissolve”. For the same compound, the inhibition at 1 µM ([10]; 1 μM) was 100%, the inhibition at 10 µM ([10]; 10 μM) was 94% and the IC50 [11] was 4.8 µM. For the same compound, the “Inhibition Index (first, head is drawing 3)” value [11] was 30 and the “Inhibition Index (second, head is drawing 4)” value [11] was 77.3.

In the case of `OC[C@H]1NC[C@@H](O)[C@@H]1O` (single isomer, unassigned) [L-enantiomer, 1,4-dideoxy-1,4-imino-arabinitol], the “HIV inhibitory / antiviral activity” value [1] is listed as “strong HIV inhibitory activity” and the glucosidase inhibition [2] is listed as “known glucosidase inhibitors”.

In the case of `CCCCCCCCCCCCN1C[C@H](O)[C@@H](O)[C@H](O)[C@H]1CO` [N-dodecyl-1-deoxynojirimycin], the “effect on trimming glucosidase II” value [12] is given as “to a lesser degree than deoxynojirimycin or N-methyl-deoxynojirimycin” and the “effect on trimming glucosidase I” value [13] is given as “to a lesser degree than deoxynojirimycin or N-methyl-deoxynojirimycin”.

For `CCCCN1C[C@H](O)[C@@H](O)[C@H](O)[C@H]1CO` [N-Butyl-DNJ, Nbutyl-deoxynojirimycin, reference compound], the IC50 [4] is listed as 536 µM, the “reduction of infectious viral particles” value ([1]; Karpas et al., at nontoxic concentrations) is listed as “greater than five” and the “HIV inhibitory / antiviral activity” value [1] is listed as “significant antiviral activity”. For the same compound, the Toxicity ([6]; 10 μM) was 0, the Toxicity ([6]; 1 mM) was 0 and the inhibition at 10 µg/mL [8] was 42.6%. It also gave an inhibition at 32 µg/mL [8] of 49.8%, an inhibition at 500 µg/mL [8] of 50.7% and an inhibition at 100 µL/mL [8] of 53.3%. The IC50 [8, 18] was 34 µg/mL (≈ 155 µM), the Solubility [9] was “Solubility problem; compound did not completely dissolve” and the gastrointestinal side effects [14] was “gastrointestinal side effects seen”. For the same compound, the metabolism [15] was “not metabolized”, the inhibition at 10 µM ([10]; 10 μM) was 57% and the inhibition at 1000 µM ([10]; 1 mM) was 100%. The t1/2 in vivo [16] was 1.24 h.

Compound `CCCCCCCCCN1C[C@H](O)[C@@H](O)[C@H](O)[C@H]1CO` [Example 3, 1,5(Nonylimino)-1,5-dideoxy-D-glucitol] has an IC50 [4] of 267 µM, a Toxicity ([6]; 10 μM) of 0 and a Toxicity ([6]; 1 mM) of 4. The IC50 [7] was 196 µM, the “ID50 compared to N-butyl-DNJ” value ([8]; HIV-1, CEM cells) was “advantageous reduction in ID50” and the IC50 [8] was 6.9 µg/mL (≈ 23.8 µM). The inhibition at 1 µg/mL [8] was 0%, the inhibition at 3.2 µg/mL [8] was 25.7% and the inhibition at 10 µg/mL [8] was 62.5%. The inhibition at 32 µg/mL [8] was 28.9%, the “inhibition of HIV-1” value [8] was “demonstrated to inhibit HIV-1” and the t1/2 in vivo [17] was 6.24 h. The metabolism [15] was “metabolized”, the inhibition at 10 µM [10] was 69% and the inhibition at 1000 µM [10] was 100%. The IC50 [11] was 18 µM, the “Inhibition Index (first, head is drawing 3)” value [11] was 10.8 and the “Inhibition Index (second, head is drawing 4)” value [11] was 14.8.
